Experiment: in vitro
Settings: human, hela cells, % viability

SMILES | viability at 28.5 h, 10 µM
Cc1cc(NC(=O)C2CCN(CC3CCCO3)CC2)no1 (stereo not drawn) [CBK305544] | 110%
Cc1nn(C)cc1-c1cncn1CCCn1ccnc1C(C)C [CBK281972] | 81.6%
CCN(CC)C(=O)C1CCCN(C(=O)Nc2cccc(OC)c2)C1 (stereo not drawn) [CBK005159] | 92.9%
O=C(Nc1ccccc1C(=O)O)c1cccc(S(=O)(=O)NCc2ccccc2)c1 [CBK261258] | 98.1%
O=C(CN1C(=O)c2ccccc2C1=O)OCC(=O)N1c2ccccc2Sc2ccccc21 [CBK264701] | 91.8%
O=C(NCc1nc2ccccc2[nH]1)c1cnc(-c2ccc(Cl)cc2)c(-c2ccco2)c1 [CBK037555] | 106%
Cc1cccc(-c2noc(CN(C(=O)c3ccc4c(c3)OCO4)C(C)C)n2)c1 [CBK268817] | 98.1%
Nc1nnc(SCCN2C(=O)c3ccccc3S2(=O)=O)s1 [CBK267688] | 88.6%
COc1ccc(Cl)cc1N1CCN(Cc2ncc[nH]2)CC1 [CBK126418] | 98.1%
Clc1ccc(CN2CCC(Oc3nccnc3OCCN3CCOCC3)CC2)cc1 [CBK082918T] | 92.5%
CC(=O)NC(Cc1c[nH]c2ccccc12)C(=O)O (stereo not drawn) [CBK217373] | 95.9%
CN1CCN(C(=O)c2cc(Br)cnc2NCCOc2ccccc2)CC1 [CBK076231] | 92%
CCCCc1ccc(-c2nc(NC(=O)NCC)cc3cccnc23)cc1 [CBK081231] | 94.6%
NC(=O)c1c(NC(=O)c2ccc3ncsc3c2)sc2c1CCCC2 [CBK287369] | 94.4%
COc1ccccc1-c1cnc(N)c(N[C@H](C)c2ccccc2)n1 [CBK063705] | 102%
Cc1nn(C)cc1-c1cncn1Cc1ccccc1CN(C)C [CBK281985] | 102%
O=C(CSc1ncnc2sc3c(c12)CCC3)Nc1nsc(-c2ccc(Cl)cc2)n1 [CBK266484] | 118%
CCN(CC)C(=O)CN1C(=O)N2CCCN=C2c2ccc(Cl)cc21 [CBK284386] | 91.7%
COc1ccc(-c2nc(NC3CCCCC3)c3ccccc3n2)cc1 [CBK058109] | 95.6%
COc1cc(C)c(C)cc1S(=O)(=O)n1cnc2ccccc21 [CBK287578] | 89.2%
O=c1n(-c2ccc(Cl)c(Cl)c2)ccn1S(=O)(=O)CCc1cccc2ccccc12 [CBK106668] | 106%
O=C1COc2ccccc2C/C=C/CC2(CCN(CC(=O)N3CCCC3)CC2)CN1 [CBK292126] | 93.7%

SMILES | viability at 28.5 h, 10 µM
Cc1cccc(NC(=S)NNC(=O)CCC(=O)O)c1 [CBK261542] | 85.1%
CC(C)(C)Nc1cc(NCCc2ccccc2)nc(N)n1 [CBK012708] | 86.8%
CC(C)=NNC(=N)Nc1ccccc1 [CBK021452] | 90.4%
CC(=O)NC1CCN(c2nc(N(C)C)nc3c2CCN(C(C)=O)C3)CC1 [CBK307079] | 85.6%
Cc1nn(C)c(N2CCNCC2)c1NC(=O)c1cnccn1 [CBK050308T] | 86.3%
Fc1ccc2c3c([nH]c2c1)C1(CCN(Cc2cc(F)c(F)c(F)c2)CC1)NCC3 [CBK039688] | 108%
COc1ccc(CCN2C(=O)c3ccccc3C2(O)c2ncc[nH]2)cc1OC (stereo not drawn) [CBK262717] | 103%
O=[N+]([O-])c1ccc(S(=O)(=O)N2CCC3(CC2)OCCO3)cc1 [CBK269303] | 97.5%
Cc1ccc2c(C)c(-c3cncn3C(C)CN3CCOCC3)oc2c1 (stereo not drawn) [CBK281796] | 107%
CC(C)(C)c1cc(-c2nc3ccccc3[nH]2)c(O)c(-c2nc3ccccc3[nH]2)c1 [CBK266084] | 90%
COc1cc(CN2CCC3(CC2)CN(CC(N)=O)c2ccccc23)cc(OC)c1OC [CBK126774] | 93.1%
Cc1cccn2cc(CSc3nnc4[nH]c5ccccc5n34)nc12 [CBK296996] | 94.1%
CCCC(=O)NCC1Cc2cc(F)cc(-c3ccc(C(C)=O)s3)c2O1 (stereo not drawn) [CBK306945] | 90.3%
CN(C)CCCNC(=O)C1CCCCN1S(=O)(=O)c1ccc(C(C)(C)C)cc1 (stereo not drawn) [CBK200070] | 101%
COc1cc(CN2CCN(Cc3cccnc3)CC2)cc(OC)c1O [CBK264274G] | 102%
COc1cc(C(=O)N2CCC3(CC2)CC(=O)c2cc(-c4cccnc4)ccc2O3)cc(OC)c1C [CBK169606] | 112%
O=C(Cn1ccc2ccnc(-c3cccs3)c21)N1CCC(O)CC1 [CBK284736] | 93.1%
Fc1ccc(Nc2cncc(-c3cccs3)n2)cc1Cl [CBK065813] | 94.3%
O=C(CN1C(=O)[C@@H]2CCCN2c2ncccc21)NC(c1ccccc1)c1ccccc1 [CBK286205] | 121%
O=C1N=C(NC2CC3CCC2C3)SC12CCCO2 (stereo not drawn) [CBK116312] | 110%
COc1ccc(CNc2cc(/C=C/c3ccccc3)nc3ccnn23)cc1 [CBK037075] | 103%
CCn1cc(C(=O)N2CCCC2c2nc3ccccc3[nH]2)cn1 (stereo not drawn) [CBK283776] | 109%

SMILES | viability at 28.5 h, 10 µM
Cc1ccc(S(=O)(=O)Nc2ccnc(-c3ccc(CO)cc3)n2)cc1 [CBK067477] | 90.4%
CCc1nn2c(C3CCNCC3)ccnc2c1-c1cccs1 [CBK284226] | 80.4%
CN1C(=O)c2cccc3c(S(=O)(=O)Nc4ccc(C(=O)O)c(O)c4)ccc1c23 [CBK299799] | 109%
O=C(c1cc(C2CC2)n[nH]1)N1CCn2cc(C(F)(F)F)nc2C1 [CBK284749] | 81.6%
COCCc1nc(CN(C)C)n(Cc2ccccc2C)n1 [CBK307014] | 87.8%
O=C1CNC(=O)N1CC(O)Cn1c2ccc(Cl)cc2c2cc(Cl)ccc21 (stereo not drawn) [CBK265792] | 90.1%
Fc1ccc(C2(CCCN3CCN(c4ccncc4)CC3)OCCO2)cc1 [CBK038887] | 111%
Cc1noc(C)c1NC(=O)c1cncnc1 [CBK200382] | 112%
C/C(=C/C(=O)NCc1ccc(Cl)cc1)C(=O)O [CBK286954] | 105%
O=C(O)COc1cccc2nsnc12 [CBK019749] | 95.1%
c1ccc(CC2CCN(CCC(c3ccccc3)c3ccccc3)CC2)cc1 [CBK126389] | 102%
COC(=O)c1ccc(N2CCN(Cc3ccc(CO)o3)C(C)C2)cc1 (stereo not drawn) [CBK305394] | 83.9%
COc1cccc(C(=O)NCCC(=O)N2CCc3ccccc3C2)c1 [CBK307575] | 84.3%
Nc1nn2c(-c3cccc(Cl)c3)nnc2s1 [CBK288122] | 73.2%
O=C(Nc1ccc(S(=O)(=O)Nc2cncs2)cc1)c1ccc(-c2cccc(C(F)(F)F)c2)o1 [CBK266625] | 89%
Nc1ncc(-c2ccc(C(=O)N3CCOCC3)cc2)nc1-c1cccnc1 [CBK126356] | 106%
CCCCOc1cccc(C(=O)Nc2ccc(-c3nc4ccccc4o3)c(O)c2)c1 [CBK263435] | 101%
Cc1ccc(CN2CCC(O)(Cn3ccc4ncccc43)CC2)o1 [CBK284751] | 97.7%
O=C(O)c1cccc(/N=C/c2ccc(/C=N/c3cccc(C(=O)O)c3)cc2)c1 [CBK261088] | 92.3%
COc1cccc(CN2CCN(C(=O)N3CCCCC3)[C@@H](C)C2)c1 [CBK284266] | 95%
CCOC(=O)C1CCCCN1S(=O)(=O)c1ccc(Br)s1 (stereo not drawn) [CBK096110] | 102%
COc1cc(C(=O)N2CCN(c3cc(C(C)C)ccc(CO)c3=O)CC2)cc(OC)c1OC [CBK007673] | 91%

SMILES | viability at 28.5 h, 10 µM
CC(=O)OC1CCn2c1nc1cc(C(F)(F)F)ccc12 (stereo not drawn) [CBK115367] | 75.1%
O=C(Nc1ccc2ncccc2c1)c1ccc(F)c(F)c1 [CBK159810] | 78.5%
CC1CN(Cc2nc3c(c(=O)[nH]c(=O)n3C)n2Cc2cccc(Cl)c2)CC(C)O1 (stereo not drawn) [CBK269450] | 105%
O=C(c1cccc(-c2cncc(-c3ccc(O)cc3)n2)c1)N1CCOCC1 [CBK123796] | 100%
CN(C)c1cccc(-c2cncc(NCCCO)n2)c1 [CBK065619] | 102%
CSCCN1CCN(c2nccnc2OCc2cccnc2)CC1 [CBK083146] | 91%
O=C(c1c[nH]c2ccccc12)N1CCC(Cc2ccccc2)CC1 [CBK200180] | 91.3%
O=C(O)CCc1ccc(S(=O)(=O)NCc2ccccc2)cc1 [CBK287054] | 79.8%
Cc1cc(C)c2[nH]c(CC(=O)N(C)CCN(C)C)nc2c1 [CBK282727] | 74.3%
NNC(=O)c1cc(-c2ccc(-c3ccccc3)cc2)nc2ccc(Br)cc12 [CBK261760] | 104%
CCCCCn1c(-c2ccccc2)n[nH]c1=O [CBK013288] | 83.3%
Cc1c(-c2ccccc2)n[nH]c1C(=O)NCCCc1ccccn1 [CBK282445] | 89%
CCSC(C)CC1C/C(=N/O)c2c(C)noc2C1 (stereo not drawn) [CBK021455] | 88.4%
O=C(CN1CCN(Cc2ccc3c(c2)OCO3)CC1)Nc1ccc(Cl)cc1C(=O)c1ccccc1 [CBK264241] | 103%
O=C(Nc1ccc2c(c1)OCCO2)c1cnccn1 [CBK220830] | 92.8%
CCC1CCCCN1C(=O)c1cc(Br)c(Br)s1 (stereo not drawn) [CBK089360] | 92.5%
COc1cc(NC(=O)COc2cccc3ccccc23)c(C(=O)O)cc1OC [CBK268253] | 76.6%
COc1ccc(C(=O)N2CCC3(CCCN(C(=O)CCSC)C3)C2)cc1OC (stereo not drawn) [CBK131661] | 111%
CC(C)(C)c1ccc(-c2cnc3ncccc3c2O)cc1 [CBK089628] | 84.3%
CCC#CC(=O)Nc1ccccc1N1CCCNCC1 [CBK024291T] | 98.5%
CN(C)C(=O)c1cc(-c2ccco2)cnc1NS(C)(=O)=O [CBK076490] | 116%
O=C(NC(c1ccccc1)c1ccccn1)c1ccco1 (stereo not drawn) [CBK144109] | 106%

Same assay, conditions: human, hela cells, % viability, bulk resorufin, single well

SMILES | viability at 28.5 h, 10 µM
O=C(Nc1ccccc1Br)N1CCC2(CC1)OCCO2 [CBK043644] | 90.7%
CC(C)(C)OC(=O)N1CCC2(CC1)OCc1cc(-c3cccc(C(=O)NCc4ccc(Cl)cc4)c3)ccc1O2 [CBK107834] | 93.3%
